Reference: patent publication US9682947B2, “Substituted lactones for treating cancer” (KUNMING INSTITUTE OF BOTANY, CHINESE ACADEMY OF SCIENCES, priority 2013, dated 2017)
“Also recorded” adds a separate entry of the source.

What was measured:
DLD-1 cells [1] = assay: Anchorage-independent growth (soft agar) assay; format: cell-based, human; settings: DLD-1 (p53 mutant), 16, 32 μM, soft agar 2 weeks
Experimental: (§1) Anchorage-independent growth (soft agar assay) in soft agar was carried out as described in inventors' previous studies (1.25). Briefly, 1×10^4 cells mixed with various concentration of Compound X in 10% FBS BME containing 0.33% soft agar, was seeded over bottom layer of 0.5% agar in 10% FBS BME in each well of 6-well plates. […]
(§2) Anchorage-independent growth (soft agar assay) in soft agar was carried out as described in Example 1.

HCT116 PUMA−/− cells [2] = assay: Anchorage-independent growth (soft agar) assay; format: cell-based, human; settings: HCT116 PUMA−/−, 16, 32 μM, soft agar 2 weeks
Experimental: as §1, §2

HCT116 cells = assay: Anchorage-independent growth (soft agar) assay; format: cell-based, human; settings: HCT116, 16 and 32 μM, soft agar 2 weeks
Experimental: as §1, §2

HT-29 cells [3] = assay: Anchorage-independent growth (soft agar) assay; format: cell-based, human; settings: HT-29 (p53 mutant), 16, 32 μM, soft agar 2 weeks
Experimental: as §1, §2

HCT116 Bax−/− cells [4] = assay: Anchorage-independent growth (soft agar) assay; format: cell-based, human; settings: soft agar 14 days
Experimental: as §1

DLD-1 cells [5] = assay: Flow cytometry assay with propidium iodide staining (apoptosis); format: cell-based, human; settings: DLD-1, 16 μM or 32 μM, 48 hours
Experimental: (§3) Flow cytometry assay was assessed as previously described in reference (1.26). After the time periods indicated, the Compound X-treated and control cells were harvested and fixed in 75% ethanol. The fixed cells were stained in the buffer containing 0.1% Triton X-100, 0.2 mg/ml RNase A, and 50 μg/ml PI (propidium iodide) at 4° C. for 1 hour and were then examined by flow cytometry utilizing an Epics XL FACS (Beckman Coulter Inc., Miami, Fla.) and EXPO 32 software as described previously (1.26).
(§4) Flow cytometry assay was carried out as described in Example 1.

HCT116 wild-type cells = assay: as above; format: cell-based, human; settings: 48 h; for cell apoptosis: HCT116 WT
Experimental: as §3, §4

HT-29 cells [6] = assay: as above; format: cell-based, human; settings: HT-29, 16 μM or 32 μM, 48 hours
Experimental: as §3, §4

HCT116 Bax−/− cells [7] = assay: as above; format: cell-based, human; settings: 48 h
Experimental: as §3

HCT116 p21−/− cells = assay: as above; format: cell-based, human; settings: 32 μM, 48 h
Experimental: as §3

HCT116 p53−/− cells = assay: as above; format: cell-based, human; settings: 48 h
Experimental: as §3

HCT116 PUMA−/− cells [8] = assay: as above; format: cell-based; settings: Homo sapiens, HCT-116, 48 h, read-out: inhibition of cell apoptosis in PUMA−/− cells as compared to HCT116 WT
Experimental: as §3, §4

Cl41 cells [9] = assay: EGF-induced cell transformation assay in soft agar; format: cell-based, mouse; settings: Cl41, 20 ng/ml EGF, dose-dependent
Experimental: Anchorage-independent growth in soft agar was performed as described previously (3.15). Briefly, 2×10^4 cells mixed with various concentration of Compound X and 20 ng/ml EGF in 10% FBS […] (BMEM) containing 0.33% soft agar, was seeded over bottom layer of 0.5% agar in 10% FBS BMEM in each well of 6-well plates. The plates were incubated in 5% CO2 incubator at 37° C. for 3 weeks, and the colonies with more than 16 cells of each were scored and presented as colonies/1×10^4 cells.

Cl41 cells [10] = assay: Cell cycle assay (flow cytometry, PI); format: cell-based, mouse; settings: 24 h, control 63.49%
Experimental: Cell cycle assay was assessed as previously described in reference (3.16). After the time periods indicated, the Compound X-treated and control cells were harvested and fixed in 75% ethanol. The fixed cells were stained with propidium iodide (PI) solution at 4° C. for 30 minutes and were then examined by flow cytometry utilizing an Epics XL FACS (Beckman Coulter Inc., Miami, Fla.) and EXPO 32 software as described previously (3.17).
To assess whether the inhibitory effects of Compound F on growth inhibition of Cl41 cells is mediated via alteration in cell cycle regulation, the inventors evaluated the effect of Compound F2 on cell cycle distribution. The Cl41 cells were synchronized by 0.1% FBS medium for 24 h, and then cultured with 1% FBS medium containing 8, 16, 32 μM of Compound F2 for 24 h.

caspase-3 and PARP = assay: Western Blotting, cleavage of caspase 3 and PARP; format: cell-based, human; settings: 16 μM, colon cancer cells
Experimental: (§5) Cellular protein extracts were prepared with cell lysis buffer (10 mM Tris-HCl, pH 7.4, 1% SDS, 1 mM Na3VO4) and resolved by SDS-PAGE. The membranes were probed with the indicated primary antibodies and HRP-conjugated secondary antibody. Signals were detected with the ECL western-blotting system as described in our previous reports (1.27, 1.28).

p53, p21 and Bax = assay: Western Blotting, p53, p21 and Bax expression in HCT116 cells; format: cell-based, human; settings: HCT116 WT, 16 μM
Experimental: as §5

PUMA = assay: Western Blot, PUMA induction in WT and p53−/− HCT116 cells; format: cell-based, human; settings: 16 μM
Experimental: as §5
(§6) See Example 1 for the method.

puma promoter = assay: PUMA promoter-driven luciferase reporter assay in HCT116 cells; format: cell-based, human; settings: HCT116, 16 μM
Experimental: (§7) HCT116 cells stably expressing the luciferase reporter constructs were seeded into 96-well plates (5×10^3/well) and subjected to compound treatment when the cultures reached 80˜90% confluence. Cellular lysates were prepared at the indicated time points, and the luciferase activities were determined by a luminometer (Wallac 1420 Victor 2 multilabel counter system) as described in our previous studies (2.24, 2.25). The results are expressed as a relative activity that is normalized to the control cells without treatment.

FoxO3a = FoxO3a transcription activity dependent luciferase (4×DBE) reporter assay in HCT116 cells; format: cell-based, human; settings: HCT116, 16 μM
Experimental: as §7

AKT = assay: Western blot, AKT phosphorylation in HCT116 cells; format: cell-based, human; settings: HCT116, 16 μM
Experimental: as §5, §6

PHLPP1 = assay: Western blot, PHLPP1 protein expression in HCT116 cells; format: cell-based, human; settings: HCT116, 16 μM
Experimental: as §5, §6

p21 and p53 = assay: Western Blot, p21 and p53 expression in Cl41 cells; format: cell-based, mouse; settings: Cl41, 2 to 32 μM, 24 hours
Experimental: as §5, §6

p21 promoter = assay: p21 promoter-driven luciferase reporter in Cl41 cells; format: cell-based, mouse; settings: Cl41, 16 μM, time-dependent
p53 = assay: p53-luciferase reporter (PG13-luc) in Cl41 cells; format: cell-based, mouse; settings: Cl41, 16 μM
leukemia cell = settings: involving activation of caspase-3 and downregulation of Bcl-2 mRNA; cited from earlier work
[11] = mice; cited from earlier work

CC(=O)O[C@H]1C=CC(=O)O[C@H]1[C@@H](O)[C@H](F)c1ccccc1 [Compound F2]
anchorage-independent growth (DLD-1 cells [1]): inhibit anchorage-independent growth
colony formation, sensitivity vs wild type cells (HCT116 PUMA−/− cells [2]): significantly more resistant
anchorage-independent growth (size and number of colonies) vs vehicle (HCT116 cells): significantly restrained the size and number of colonies; also recorded: significantly decreased anchorage-independent growth
anchorage-independent growth (HT-29 cells [3]): inhibit anchorage-independent growth
colony formation (HCT116 Bax−/− cells [4]): only partially inhibit colony formation
sub-G1 DNA content (apoptotic peak) vs vehicle control (DLD-1 cells [5]): substantial increase in sub-G1 DNA content
sub-G1 DNA content (apoptotic peak) vs vehicle control (HCT116 wild-type cells; HCT116, 16 μM or 32 μM): substantial increase in sub-G1 DNA content
cell apoptosis (HCT116 wild-type cells; 16 μM): 18.30%
cell apoptosis (HCT116 wild-type cells; 32 μM): 26.27%
sub-G1 DNA content (apoptotic peak) vs vehicle control (HT-29 cells [6]): substantial increase in sub-G1 DNA content
cell apoptosis (HCT116 Bax−/− cells [7]; 16 μM): 1.00%
cell apoptosis (HCT116 Bax−/− cells [7]; 32 μM): 0.69%
cell apoptosis (HCT116 p21−/− cells): 80.31%
cell apoptosis (HCT116 p53−/− cells; 16 μM): 7.41%
cell apoptosis (HCT116 p53−/− cells; 32 μM): 14.18%
inhibition at 16 µM (HCT116 PUMA−/− cells [8]): > 90%
EGF-induced cell transformation and colony formation on soft agar (Cl41 cells [9]): significantly repressed EGF-induced cell transformation and colony formation
proportion of cells in the G0/G1 phase (Cl41 cells [10]; 8 μM): 77.74%
proportion of cells in the G0/G1 phase (Cl41 cells [10]; 16 μM): 79.79%
proportion of cells in the G0/G1 phase (Cl41 cells [10]; 32 μM): 80.13%
cleaved caspases-3 and PARP (caspase-3 and PARP): detected in a time-dependent manner from 24 h to 48 h; also recorded: detected in a time-dependent manner from 6 hours to 48 hours
p53, p21 and Bax protein levels (p53, p21 and Bax): increasing as time-dependent manner
PUMA protein induction, time (PUMA): ≤ 12 h
puma promoter transcription activity (puma promoter): markedly induction of puma promoter transcription activity
FoxO3a transactivation (FoxO3a): significantly induced FoxO3a transactivation
phosphorylation of AKT at Ser 473 (AKT): inhibited after exposure to Compound F2 for 12 h or longer
PHLPP1 protein expression (PHLPP1): upregulated
expression levels of p21 and p53 (p21 and p53): increased
p21 promoter transcription activity (p21 promoter): obvious induction of p21 promoter transcription activity
p53 transactivation (p53): significantly induced p53 transactivation

CC(=O)O[C@H]1C=CC(=O)O[C@H]1C1OC1c1ccccc1 (some centres unmarked) [cheliensisin A, Cheliensisin A]
leukemia cell apoptosis (leukemia cell): induced leukemia cell apoptosis
in vivo antitumor effect [11]: potent in vivo antitumor effect
